Reference: patent publication US8426408B2, “Pyrimidine inhibitors of kinases” (AbbVie Inc., priority 2009, dated 2013)

Experiments:
[1] = target: KDR (Homo sapiens, UniProt P35968); experiment: KDR HTRF in vitro kinase assay; type: biochemical; parameters: purified enzyme (His6-KDR 789-1354, MW 63 kD); His6 (N); conditions: 1 mM ATP; read-out: KDR enzyme inhibition data (Ki)
In short: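 His6-KDR 789-1354 (7 ng/well) with 0.5 μM biotinylated peptide substrate and 1 mM ATP in HEPES pH 7.1, MgCl2/MnCl2, 60 min at room temperature. EDTA-quenched, detected by streptavidin-XL-665 plus Eu-kryptate anti-phosphotyrosine HTRF after 3 h; IC50 from 620/665 nm ratio.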

[2] = target: T1, Aurora B (Homo sapiens, UniProt Q96GD4); experiment: Aurora B enzyme inhibition (time-resolved fluorescence, histone H3 peptide); type: biochemical; conditions: 1 mM ATP
T1 construct: Active Aurora B enzyme (recombinant residues 1-344)
T1 sequence (Q96GD4 whole entry, the tested form may be a part): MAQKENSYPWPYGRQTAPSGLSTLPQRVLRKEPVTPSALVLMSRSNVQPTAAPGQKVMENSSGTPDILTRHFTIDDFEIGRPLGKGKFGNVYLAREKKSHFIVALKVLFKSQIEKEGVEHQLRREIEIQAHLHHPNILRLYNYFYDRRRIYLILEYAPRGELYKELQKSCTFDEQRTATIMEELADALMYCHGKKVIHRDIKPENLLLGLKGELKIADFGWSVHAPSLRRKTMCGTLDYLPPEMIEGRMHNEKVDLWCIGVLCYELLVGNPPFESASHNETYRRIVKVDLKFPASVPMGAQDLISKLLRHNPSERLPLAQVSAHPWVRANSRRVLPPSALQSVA
T1 sequence (Q9NQS7 826-918 partner limits assumed): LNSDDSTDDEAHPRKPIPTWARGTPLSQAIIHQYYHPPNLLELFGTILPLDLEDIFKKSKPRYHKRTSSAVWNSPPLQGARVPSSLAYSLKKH
In short: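 Recombinant Aurora B (residues 1-344) with GST-INCENP phosphorylated biotinylated histone H3 (1-21) peptide at 1 mM ATP in HEPES pH 7.4 with MgCl2, orthovanadate and Triton X-100 for 1 h. After EDTA stop, the phosphopeptide was detected by TR-FRET (Eu-cryptate anti-phospho-H3 / SA-APC, 665/615 nm ratio). IC50 from an exponential fit.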

Chain of KDR (P35968 789-1354): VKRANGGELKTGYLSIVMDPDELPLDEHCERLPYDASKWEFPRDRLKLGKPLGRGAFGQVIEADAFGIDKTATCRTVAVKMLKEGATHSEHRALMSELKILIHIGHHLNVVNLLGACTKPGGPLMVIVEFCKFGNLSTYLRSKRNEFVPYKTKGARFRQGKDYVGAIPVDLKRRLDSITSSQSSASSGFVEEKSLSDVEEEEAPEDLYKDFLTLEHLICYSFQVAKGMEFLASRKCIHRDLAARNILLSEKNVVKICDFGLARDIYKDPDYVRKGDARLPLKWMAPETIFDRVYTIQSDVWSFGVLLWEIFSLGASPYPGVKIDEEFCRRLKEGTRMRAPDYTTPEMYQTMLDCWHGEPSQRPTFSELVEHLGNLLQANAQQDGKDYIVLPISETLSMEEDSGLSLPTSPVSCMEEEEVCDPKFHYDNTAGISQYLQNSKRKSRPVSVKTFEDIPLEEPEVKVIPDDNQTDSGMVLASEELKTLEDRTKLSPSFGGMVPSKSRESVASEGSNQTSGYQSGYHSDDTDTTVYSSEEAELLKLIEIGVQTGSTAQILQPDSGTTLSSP

Row | Ki [1] [nM] | Ki [2] [nM] | Compound
1 | < 100 | < 100 | CCn1cc(Nc2ncc(Cl)c(NC3C4CCC(O4)C3C(N)=O)n2)cn1 (racemic) [Example 142, (1S,2R,3S,4R)-3-({5-chloro-2-[(1-ethyl-1H-pyrazol-4-yl)amino]pyrimidin-4-yl}amino)-7-oxabicyclo[2.2.1]heptane-2-carboxamide and (1R,2S,3R,4S)-3-({5-chloro-2-[(1-ethyl-1H-pyrazol-4-yl)amino]pyrimidin-4-yl}amino)-7-oxabicyclo[2.2.1]heptane-2-carboxamide]
2 | 100 to 1000 | < 100 | CC(C)NC(=O)C1CCCC1Nc1nc(Nc2cnn(C3CCNCC3)c2)ncc1Cl (racemic) [Example 163, (1S,2R)-2-[(5-chloro-2-{[1-(piperidin-4-yl)-1H-pyrazol-4-yl]amino}pyrimidin-4-yl)amino]-N-isopropylcyclopentanecarboxamide and (1R,2S)-2-[(5-chloro-2-{[1-(piperidin-4-yl)-1H-pyrazol-4-yl]amino}pyrimidin-4-yl)amino]-N-isopropylcyclopentanecarboxamide]
3 | < 100 | < 100 | CNC(=O)Cn1cc(Nc2ncc(Cl)c(N[C@@H]3[C@H]4CC[C@H](C4)[C@@H]3C(N)=O)n2)cn1 [Example 88, (1R,2S,3R,4S)-3-{[5-chloro-2-({1-[2-(methylamino)-2-oxoethyl]-1H-pyrazol-4-yl}amino)pyrimidin-4-yl]amino}bicyclo[2.2.1]heptane-2-carboxamide]
4 | < 100 | < 100 | CN(C)CC(=O)N1CCC(n2cc(Nc3ncc(Cl)c(N[C@H]4[C@@H](C(N)=O)[C@@H]5C=C[C@H]4C5)n3)cn2)CC1 [Example 89, (1S,2S,3R,4R)-3-{[5-chloro-2-({1-[1-(N,N-dimethylglycyl)piperidin-4-yl]-1H-pyrazol-4-yl}amino)pyrimidin-4-yl]amino}bicyclo[2.2.1]hept-5-ene-2-carboxamide]
5 | < 100 | < 100 | CN1CCN(CCn2cc(Nc3ncc(Cl)c(N[C@@H]4[C@H]5CC[C@H](C5)[C@@H]4C(N)=O)n3)cn2)CC1 [Example 90, (1R,2S,3R,4S)-3-{[5-chloro-2-({1-[2-(4-methylpiperazin-1-yl)ethyl]-1H-pyrazol-4-yl}amino)pyrimidin-4-yl]amino}bicyclo[2.2.1]heptane-2-carboxamide]
6 | < 100 | < 100 | CN1CCN(CCn2cc(Nc3ncc(Cl)c(N[C@H]4[C@@H](C(N)=O)[C@@H]5C=C[C@H]4C5)n3)cn2)CC1 [Example 91, (1S,2S,3R,4R)-3-{[5-chloro-2-({1-[2-(4-methylpiperazin-1-yl)ethyl]-1H-pyrazol-4-yl}amino)pyrimidin-4-yl]amino}bicyclo[2.2.1]hept-5-ene-2-carboxamide]
7 | < 100 | < 100 | CC(=O)N1CCC(n2cc(Nc3ncc(Cl)c(N[C@H]4[C@@H](C(N)=O)[C@@H]5C=C[C@H]4C5)n3)cn2)CC1 [Example 92, (1S,2S,3R,4R)-3-[(2-{[1-(1-acetylpiperidin-4-yl)-1H-pyrazol-4-yl]amino}-5-chloropyrimidin-4-yl)amino]bicyclo[2.2.1]hept-5-ene-2-carboxamide]
8 | < 100 | < 100 | NC(=O)[C@H]1[C@@H]2CC[C@@H](C2)[C@H]1Nc1nc(Nc2cnn(CCO)c2)ncc1Cl [Example 93, (1R,2S,3R,4S)-3-[(5-chloro-2-{[1-(2-hydroxyethyl)-1H-pyrazol-4-yl]amino}pyrimidin-4-yl)amino]bicyclo[2.2.1]heptane-2-carboxamide]
9 | < 100 | < 100 | CN1CCC(Cn2cc(Nc3ncc(Cl)c(N[C@H]4[C@@H](C(N)=O)[C@@H]5C=C[C@H]4C5)n3)cn2)CC1 [Example 97, (1S,2S,3R,4R)-3-{[5-chloro-2-({1-[(1-methylpiperidin-4-yl)methyl]-1H-pyrazol-4-yl}amino)pyrimidin-4-yl]amino}bicyclo[2.2.1]hept-5-ene-2-carboxamide]
10 | < 100 | < 100 | CC(C)n1cc(Nc2ncc(Cl)c(N[C@H]3[C@@H](C(N)=O)[C@@H]4C=C[C@H]3C4)n2)cn1 [Example 98, (1S,2S,3R,4R)-3-({5-chloro-2-[(1-isopropyl-1H-pyrazol-4-yl)amino]pyrimidin-4-yl}amino)bicyclo[2.2.1]hept-5-ene-2-carboxamide]
11 | < 100 | < 100 | CC(C)CCn1cc(Nc2ncc(Cl)c(N[C@H]3[C@@H](C(N)=O)[C@@H]4C=C[C@H]3C4)n2)cn1 [Example 99, (1S,2S,3R,4R)-3-[(5-chloro-2-[1-(3-methylbutyl)-1H-pyrazol-4-yl]aminopyrimidin-4-yl)amino]bicyclo[2.2.1]hept-5-ene-2-carboxamide]
12 | < 100 | < 100 | COCCOCCn1cc(Nc2ncc(Cl)c(N[C@H]3[C@@H](C(N)=O)[C@@H]4C=C[C@H]3C4)n2)cn1 [Example 100, (1S,2S,3R,4R)-3-{[5-chloro-2-({1-[2-(2-methoxyethoxy)ethyl]-1H-pyrazol-4-yl}amino)pyrimidin-4-yl]amino}bicyclo[2.2.1]hept-5-ene-2-carboxamide]
13 | < 100 | < 100 | Cn1cc(Nc2ncc(Cl)c(Nc3ccccc3C3(O)CCC3)n2)cn1 [Example 101, 1-[2-({5-chloro-2-[(1-methyl-1H-pyrazol-4-yl)amino]pyrimidin-4-yl}amino)phenyl]cyclobutanol]
14 | < 100 | < 100 | NC(=O)[C@@H]1[C@H](Nc2nc(Nc3cnn(C[C@H]4CCCN4)c3)ncc2Cl)[C@H]2C=C[C@@H]1C2 [Example 102, (1S,2S,3R,4R)-3-{[5-chloro-2-({1-[(2R)-pyrrolidin-2-ylmethyl]-1H-pyrazol-4-yl}amino)pyrimidin-4-yl]amino}bicyclo[2.2.1]hept-5-ene-2-carboxamide]
15 | < 100 | < 100 | NC(=O)[C@@H]1[C@H](Nc2nc(Nc3cnn(CC(=O)O)c3)ncc2Cl)[C@H]2C=C[C@@H]1C2 [Example 103, {4-[(4-{[(1R,2R,3S,4S)-3-carbamoylbicyclo[2.2.1]hept-5-ene-2-yl]amino}-5-chloropyrimidin-2-yl)amino]-1H-pyrazol-1-yl}acetic acid]
16 | < 100 | < 100 | C[C@@H](O)Cn1cc(Nc2ncc(Cl)c(N[C@@H]3[C@H]4CC[C@H](C4)[C@@H]3C(N)=O)n2)cn1 [Example 104, (1R,2S,3R,4S)-3-{[5-chloro-2-({1-[(2R)-2-hydroxypropyl]-1H-pyrazol-4-yl}amino)pyrimidin-4-yl]amino}bicyclo[2.2.1]heptane-2-carboxamide]
17 | < 100 | < 100 | C[C@@H](O)Cn1cc(Nc2ncc(Cl)c(N[C@H]3[C@@H](C(N)=O)[C@@H]4C=C[C@H]3C4)n2)cn1 [Example 105, (1S,2S,3R,4R)-3-{[5-chloro-2-({1-[(2R)-2-hydroxypropyl]-1H-pyrazol-4-yl}amino)pyrimidin-4-yl]amino}bicyclo[2.2.1]hept-5-ene-2-carboxamide]
18 | < 100 | < 100 | COCCn1cc(Nc2ncc(Br)c(N[C@H]3[C@@H](C(N)=O)[C@@H]4C=C[C@H]3C4)n2)cn1 [Example 106, (1S,2S,3R,4R)-3-[(5-bromo-2-{[1-(2-methoxyethyl)-1H-pyrazol-4-yl]amino}pyrimidin-4-yl)amino]bicyclo[2.2.1]hept-5-ene-2-carboxamide]
19 | < 100 | < 100 | NC(=O)[C@@H]1[C@H](Nc2nc(Nc3cnn([C@@H]4CCOC4)c3)ncc2Cl)[C@H]2C=C[C@@H]1C2 [Example 107, (1S,2S,3R,4R)-3-{[5-chloro-2-({1-[(3R)-tetrahydrofuran-3-yl]-1H-pyrazol-4-yl}amino)pyrimidin-4-yl]amino}bicyclo[2.2.1]hept-5-ene-2-carboxamide]
20 | < 100 | < 100 | NC(=O)[C@@H]1[C@H](Nc2nc(Nc3cnn([C@H]4CCOC4)c3)ncc2Cl)[C@H]2C=C[C@@H]1C2 [Example 108, (1S,2S,3R,4R)-3-{[5-chloro-2-({1-[(3S)-tetrahydrofuran-3-yl]-1H-pyrazol-4-yl}amino)pyrimidin-4-yl]amino}bicyclo[2.2.1]hept-5-ene-2-carboxamide]
21 | < 100 | < 100 | Cn1cc(Nc2ncc(C(F)(F)F)c(Nc3ccccc3C3(O)CNC3)n2)cn1 [Example 109, 3-[2-({2-[(1-methyl-1H-pyrazol-4-yl)amino]-5-(trifluoromethyl)pyrimidin-4-yl}amino)phenyl]azetidin-3-ol]
22 | < 100 | < 100 | COCCOCCn1cc(Nc2ncc(Br)c(N[C@H]3[C@@H](C(N)=O)[C@@H]4C=C[C@H]3C4)n2)cn1 [Example 110, (1S,2S,3R,4R)-3-{[5-bromo-2-({1-[2-(2-methoxyethoxy)ethyl]-1H-pyrazol-4-yl}amino)pyrimidin-4-yl]amino}bicyclo[2.2.1]hept-5-ene-2-carboxamide]
23 | < 100 | < 100 | CC(C)CCn1cc(Nc2ncc(Br)c(N[C@H]3[C@@H](C(N)=O)[C@@H]4C=C[C@H]3C4)n2)cn1 [Example 111, (1S,2S,3R,4R)-3-[(5-bromo-2-{[1-(3-methylbutyl)-1H-pyrazol-4-yl]amino}pyrimidin-4-yl)amino]bicyclo[2.2.1]hept-5-ene-2-carboxamide]
24 | < 100 | < 100 | CC(C)n1cc(Nc2ncc(Br)c(N[C@H]3[C@@H](C(N)=O)[C@@H]4C=C[C@H]3C4)n2)cn1 [Example 112, (1S,2S,3R,4R)-3-({5-bromo-2-[(1-isopropyl-1H-pyrazol-4-yl)amino]pyrimidin-4-yl}amino)bicyclo[2.2.1]hept-5-ene-2-carboxamide]
